Reference: ChEMBL document CHEMBL1153545 (Antimicrob Agents Chemother, 2007)
In brackets after ≈: the same amount, converted by molar mass. Values belong to the compound of their own block, whether it stands above or below them. Activity calls are given as the source filed them. No cut-off for these calls is given here.

Legend:
Streptococcus pneumoniae [1] = assay: Antimicrobial activity against Streptococcus pneumoniae Spn-058 by broth macrodilution technique in presence of 5% lysed horse blood; assay type: functional
[2] = Stability assessed as degradation half life; assay type: physicochemical
[3] = Half life in one-compartment pharmacodynamic system administered at simulated oral dose regimen of 500 mg in human for 10 days; assay type: ADME, organism-based
Streptococcus pneumoniae [4] = assay: Antimicrobial activity against Streptococcus pneumoniae Spn-RC2 infected in one-compartment pharmacodynamic system assessed as regrowth of bacteria administered at simulated at 750 mg dosage regimen every 12 hrs measured on day 3; assay type: functional, organism-based
Streptococcus pneumoniae [5] = assay: Antimicrobial activity against Streptococcus pneumoniae Spn-RC2 infected in one-compartment pharmacodynamic system assessed as decrease in bacterial population administered at simulated oral dose regimen of 500 mg in human for 10 days by quantitative culture assay; assay type: functional, organism-based
[6] = Free AUC (0 to 24 hrs) in one-compartment pharmacodynamic system administered at simulated oral dose regimen of 500 mg in human for 10 days; assay type: ADME
Streptococcus pneumoniae [7] = assay: Antimicrobial activity against Streptococcus pneumoniae Spn-058 infected in one-compartment pharmacodynamic system assessed as reduction in bacterial density administered at simulated at 500 mg QD dosage regimen measured on day 1; assay type: functional, organism-based
Streptococcus pneumoniae [8] = assay: Antimicrobial activity against Streptococcus pneumoniae Spn-058 infected in one-compartment pharmacodynamic system assessed as regrowth of bacteria administered at simulated at 500 mg QD dosage regimen measured on day 6; assay type: functional, organism-based
Streptococcus pneumoniae [9] = assay: Antimicrobial activity against Streptococcus pneumoniae Spn-058 infected in one-compartment pharmacodynamic system assessed as decrease in bacterial population administered at simulated at 750 mg dosage regimen every 12 hrs for 10 days by quantitative culture assay; assay type: functional, organism-based
Streptococcus pneumoniae [10] = assay: Inhibition of efflux pump in Streptococcus pneumoniae Spn-RC2 assessed as change in ciprofloxacin MIC by agar dilution method
Streptococcus pneumoniae [11] = assay: Inhibition of efflux pump in Streptococcus pneumoniae Spn-058 harboring mutation in parC and […] gene assessed as decrease in ciprofloxacin MIC
Streptococcus pneumoniae [12] = assay: Antimicrobial activity against Streptococcus pneumoniae Spn-RC2 infected in one-compartment pharmacodynamic system assessed as regrowth of bacteria administered at simulated at 750 mg dosage regimen every 12 hrs measured on day 8; assay type: functional, organism-based
Streptococcus pneumoniae [13] = assay: Induction of efflux pump expression in Streptococcus pneumoniae Spn-058 after 5 hrs by ethidium bromide uptake assay
Streptococcus pneumoniae [14] = assay: Inhibition of efflux pump in Streptococcus pneumoniae Spn-RC2 assessed as reduction in levofloxacin at 20 ug/ml MIC by broth microdilution method
Streptococcus pneumoniae [15] = assay: Inhibition of efflux pump in Streptococcus pneumoniae Spn-058 assessed as ethidium bromide uptake at 20 ug/ml
Streptococcus pneumoniae [16] = assay: Inhibition of efflux pump in Streptococcus pneumoniae Spn-058 with harboring mutation in parC gene assessed as decrease in levofloxacin MIC
Streptococcus pneumoniae [17] = assay: Inhibition of efflux pump in Streptococcus pneumoniae Spn-058 infected in one-compartment pharmacodynamic system assessed as repid killing administered levofloxacin at simulated oral dose regimen of 750 mg in human every 24 hrs measured on day 10
Streptococcus pneumoniae [18] = assay: Inhibition of efflux pump in Streptococcus pneumoniae Spn-058 infected in one-compartment pharmacodynamic system assessed as repid killing administered levofloxacin at simulated oral dose regimen of 500 mg in human measured on day 6
Streptococcus pneumoniae [19] = assay: Induction of efflux pump expression in Streptococcus pneumoniae Spn-058 harboring mutation in gyrA gene at 20 ug/ml
Streptococcus pneumoniae [20] = assay: Inhibition of efflux pump in Streptococcus pneumoniae Spn-058 assessed as reduction in levofloxacin MIC by agar dilution method
Streptococcus pneumoniae [21] = assay: Antimicrobial activity against Streptococcus pneumoniae Spn-058 infected in one-compartment pharmacodynamic system assessed as prevention of regrowth administered ciprofloxacin at simulated oral dose regimen of 750 mg in human every 12 hrs measured on day 10; assay type: functional, organism-based
Streptococcus pneumoniae [22] = assay: Inhibition of efflux pump in Streptococcus pneumoniae Spn-RC2 assessed as reduction in ciprofloxacin MIC by agar microdilution method
Streptococcus pneumoniae [23] = assay: Inhibition of efflux pump in Streptococcus pneumoniae Spn-RC2 assessed as ethidium bromide uptake at 20 ug/ml
Streptococcus pneumoniae [24] = assay: Antimicrobial activity against Streptococcus pneumoniae Spn-058 at 5.5 to 8 log10 CFU/ml bacterial density measured within 24 hrs; assay type: functional, organism-based
Streptococcus pneumoniae [25] = assay: Inhibition of efflux pump in Streptococcus pneumoniae Spn-RC2 assessed as reduction in levofloxacin MIC by agar microdilution method
Streptococcus pneumoniae [26] = assay: Induction of efflux pump expression in Streptococcus pneumoniae Spn-RC2 after 5 hrs by ethidium bromide uptake assay
Streptococcus pneumoniae [27] = assay: Inhibition of efflux pump in Streptococcus pneumoniae Spn-058 assessed as change in ciprofloxacin MIC by agar dilution method
Streptococcus pneumoniae [28] = assay: Antimicrobial activity against Streptococcus pneumoniae Spn-058 assessed as bacterial load; assay type: functional, organism-based
Streptococcus pneumoniae [29] = assay: Inhibition of efflux pump in Streptococcus pneumoniae Spn-058 assessed as reduction in levofloxacin MIC by broth microdilution method
Streptococcus pneumoniae [30] = assay: Antimicrobial activity against Streptococcus pneumoniae Spn-RC2 infected in one-compartment pharmacodynamic system assessed as decrease in bacterial density administered at simulated at 500 mg QD dosage regimen for 10 days measured after 24 hrs by quantitative culture assay; assay type: functional, organism-based
Streptococcus pneumoniae [31] = assay: Inhibition of efflux pump in Streptococcus pneumoniae Spn-058 assessed as change in levofloxacin MIC at 20 ug/ml by broth macrodilution method
Streptococcus pneumoniae [32] = assay: Inhibition of ciprofloxacin-induced efflux pump expression in Streptococcus pneumoniae Spn-058 after 5 hrs by ethidium bromide uptake assay
Streptococcus pneumoniae [33] = assay: Inhibition of efflux pump in Streptococcus pneumoniae Spn-058 assessed as reduction in ciprofloxacin MIC by agar dilution method
Streptococcus pneumoniae [34] = assay: Inhibition of efflux pump in Streptococcus pneumoniae Spn-058 assessed as change in levofloxacin MIC by agar dilution method
Streptococcus pneumoniae [35] = assay: Inhibition of efflux pump in ciprofloxacin pretreated Streptococcus pneumoniae Spn-RC2 at 20 ug/ml by ethidium bromide uptake assay
Streptococcus pneumoniae [36] = assay: Inhibition of efflux pump in Streptococcus pneumoniae Spn-058 assessed as reduction in ciprofloxacin MIC by broth microdilution method
Streptococcus pneumoniae [37] = assay: Inhibition of efflux pump in Streptococcus pneumoniae Spn-058 assessed as change in ciprofloxacin MIC at 20 ug/ml by broth macrodilution method
Streptococcus pneumoniae [38] = assay: Inhibition of efflux pump in Streptococcus pneumoniae Spn-058 with harboring Ser79Tyr mutation in parC gene assessed as decrease in ciprofloxacin MIC
Streptococcus pneumoniae [39] = assay: Inhibition of efflux pump in Streptococcus pneumoniae Spn-RC2 assessed as change in levofloxacin MIC by agar dilution method
Streptococcus pneumoniae [40] = assay: Inhibition of efflux pump in Streptococcus pneumoniae Spn-RC2 assessed as reduction in ciprofloxacin MIC at 20 ug/ml by broth microdilution method
Streptococcus pneumoniae [41] = assay: Inhibition of efflux pump in Streptococcus pneumoniae Spn-058 infected in one-compartment pharmacodynamic system assessed as repid killing administered levofloxacin at simulated oral dose regimen of 750 mg in human every 12 hrs measured on day 6
Streptococcus pneumoniae [42] = assay: Antimicrobial activity against Streptococcus pneumoniae Spn-RC2 by broth macrodilution technique
Streptococcus pneumoniae [43] = assay: Antimicrobial activity against Streptococcus pneumoniae Spn-058 infected in one-compartment pharmacodynamic system assessed as reduction in bacterial density administered at simulated oral dose regimen of 750 mg in human every 12 hrs measured on day 1; assay type: functional, organism-based
Streptococcus pneumoniae [44] = assay: Antimicrobial activity against Streptococcus pneumoniae Spn-058 infected in one-compartment pharmacodynamic system assessed as regrowth of bacteria administered at simulated oral dose regimen of 750 mg in human every 12 hrs measured on day 2; assay type: functional, organism-based

half-life [2]: 20 h
half-life [3]: 7 h
fAUC [6]: 36000 ng·h/mL
Structure (SMILES): C[C@H]1COc2c(N3CCN(C)CC3)c(F)cc3c(=O)c(C(=O)O)cn1c23.C[C@H]1COc2c(N3CCN(C)CC3)c(F)cc3c(=O)c(C(=O)O)cn1c23.O [LEVOFLOXACIN]
MBC (Streptococcus pneumoniae [1]): 1 µg/mL
Activity (Streptococcus pneumoniae [4]): Active
Activity (Streptococcus pneumoniae [5]): Active
Activity (Streptococcus pneumoniae [7]): Active
Activity (Streptococcus pneumoniae [8]): inactive
Activity (Streptococcus pneumoniae [9]): Active

Structure (SMILES): COC(=O)[C@H]1[C@H]2C[C@@H]3c4[nH]c5cc(OC)ccc5c4CCN3C[C@H]2C[C@@H](OC(=O)c2cc(OC)c(OC)c(OC)c2)[C@@H]1OC
Activity (Streptococcus pneumoniae [10]): Active
Activity (Streptococcus pneumoniae [11]): Active
Activity (Streptococcus pneumoniae [12]): inactive
Activity (Streptococcus pneumoniae [13]): Active
Activity (Streptococcus pneumoniae [14]): Active
Activity (Streptococcus pneumoniae [15]): Active
Activity (Streptococcus pneumoniae [16]): Active
Activity (Streptococcus pneumoniae [17]): Active
Activity (Streptococcus pneumoniae [18]): Active
Activity (Streptococcus pneumoniae [19]): Active
Activity (Streptococcus pneumoniae [20]): Active
Activity (Streptococcus pneumoniae [21]): Active
Activity (Streptococcus pneumoniae [22]): Active
Activity (Streptococcus pneumoniae [23]): Active
Activity (Streptococcus pneumoniae [24]): Active
Activity (Streptococcus pneumoniae [25]): Active
Activity (Streptococcus pneumoniae [26]): Active
Activity (Streptococcus pneumoniae [27]): Active
Activity (Streptococcus pneumoniae [28]): Active
Activity (Streptococcus pneumoniae [29]): Active
Activity (Streptococcus pneumoniae [30]): inactive
Activity (Streptococcus pneumoniae [31]): inactive
Activity (Streptococcus pneumoniae [32]): Active
Activity (Streptococcus pneumoniae [33]): Active
Activity (Streptococcus pneumoniae [34]): Active
Activity (Streptococcus pneumoniae [35]): Active
Activity (Streptococcus pneumoniae [36]): Active
Activity (Streptococcus pneumoniae [37]): inactive
Activity (Streptococcus pneumoniae [38]): Active
Activity (Streptococcus pneumoniae [39]): Active
Activity (Streptococcus pneumoniae [40]): Active
Activity (Streptococcus pneumoniae [41]): Active

Structure (SMILES): O=C(O)c1cn(C2CC2)c2cc(N3CCNCC3)c(F)cc2c1=O [CIPROFLOXACIN]
MBC (Streptococcus pneumoniae [1]): 1 µg/mL
MIC (Streptococcus pneumoniae [1]): 1 µg/mL
Activity (Streptococcus pneumoniae [21]): Active
Activity (Streptococcus pneumoniae [4]): Active
MIC (Streptococcus pneumoniae [42]): 2 µg/mL (≈ 6.04 µM)
Activity (Streptococcus pneumoniae [43]): Active
Activity (Streptococcus pneumoniae [44]): inactive
